Laboratory results from US11078202B2, “β-lactamase inhibitor and use thereof” (priority 2018, dated 2021).
Structures can show the parent of a compound that is named as a salt.

Experiments:
Format in all cases: cell-based
[1] = tested on: Acinetobacter baumannii XNWB 0007; assay: MIC assay of test compounds combined with ceftazidime (8 μg/mL); conditions: ceftazidime 8 μg/mL fixed
In short: (§1)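 Checkerboard-free combination MIC: test compound titrated against a constant partner antibiotic in cation-adjusted Mueller-Hinton broth. Inocula prepared from TSA colonies at OD600 0.1-0.15, diluted 300×. Plates shaken, incubated under normal atmosphere at 35±2 °C for 16-20 h; endpoints taken following CLSI.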

[2] = tested on: Klebsiella pneumoniae XNWB 0005; assay: as above; conditions: ceftazidime 8 μg/mL fixed
In short: as §1

[3] = tested on: Klebsiella pneumoniae XNWB 0001; assay: as above; conditions: ceftazidime 8 μg/mL fixed
In short: as §1

[4] = tested on: Klebsiella pneumoniae XNWB 0004; assay: as above; conditions: ceftazidime 8 μg/mL fixed
In short: as §1

[5] = tested on: Klebsiella pneumoniae XNWB 0006; assay: as above; conditions: ceftazidime 8 μg/mL fixed
In short: as §1

[6] = tested on: Pseudomonas aeruginosa XNWB 0008; assay: as above; conditions: ceftazidime 8 μg/mL fixed
In short: as §1

[7] = tested on: Klebsiella pneumoniae XNWB 0003; assay: as above; conditions: ceftazidime 8 μg/mL fixed
In short: as §1

[8] = tested on: Klebsiella pneumoniae XNWB 0002; assay: as above; conditions: ceftazidime 8 μg/mL fixed
In short: as §1

[9] = tested on: Acinetobacter baumannii XNWB 0007; assay: MIC assay of test compounds combined with imipenem (4 μg/mL); conditions: imipenem 4 μg/mL fixed
In short: as §1

[10] = tested on: Klebsiella pneumoniae XNWB 0005; assay: as above; conditions: imipenem 4 μg/mL fixed
In short: as §1

[11] = tested on: Klebsiella pneumoniae XNWB 0001; assay: as above; conditions: imipenem 4 μg/mL fixed
In short: as §1

[12] = tested on: Klebsiella pneumoniae XNWB 0004; assay: as above; conditions: imipenem 4 μg/mL fixed
In short: as §1

[13] = tested on: Klebsiella pneumoniae XNWB 0006; assay: as above; conditions: imipenem 4 μg/mL fixed
In short: as §1

[14] = tested on: Pseudomonas aeruginosa XNWB 0008; assay: as above; conditions: imipenem 4 μg/mL fixed
In short: as §1

[15] = tested on: Klebsiella pneumoniae XNWB 0003; assay: as above; conditions: imipenem 4 μg/mL fixed
In short: as §1

[16] = tested on: Klebsiella pneumoniae XNWB 0002; assay: as above; conditions: imipenem 4 μg/mL fixed
In short: as §1

| Compound | The minimum concentration of test compounds combined with ceftazidime (8 μg/mL) for bacteriostasis [1] | The minimum concentration of test compounds combined with ceftazidime (8 μg/mL) for bacteriostasis [2] | The minimum concentration of test compounds combined with ceftazidime (8 μg/mL) for bacteriostasis [3] | The minimum concentration of test compounds combined with ceftazidime (8 μg/mL) for bacteriostasis [4] | The minimum concentration of test compounds combined with ceftazidime (8 μg/mL) for bacteriostasis [5] | The minimum concentration of test compounds combined with ceftazidime (8 μg/mL) for bacteriostasis [6] | The minimum concentration of test compounds combined with ceftazidime (8 μg/mL) for bacteriostasis [7] | The minimum concentration of test compounds combined with ceftazidime (8 μg/mL) for bacteriostasis [8] | The minimum concentration of test compounds combined with imipenem (4 μg/mL) for bacteriostasis [9] | The minimum concentration of test compounds combined with imipenem (4 μg/mL) for bacteriostasis [10] | The minimum concentration of test compounds combined with imipenem (4 μg/mL) for bacteriostasis [11] | The minimum concentration of test compounds combined with imipenem (4 μg/mL) for bacteriostasis [12] | The minimum concentration of test compounds combined with imipenem (4 μg/mL) for bacteriostasis [13] | The minimum concentration of test compounds combined with imipenem (4 μg/mL) for bacteriostasis [14] | The minimum concentration of test compounds combined with imipenem (4 μg/mL) for bacteriostasis [15] | The minimum concentration of test compounds combined with imipenem (4 μg/mL) for bacteriostasis [16] |
| --- | --- | --- | --- | --- | --- | --- | --- | --- | --- | --- | --- | --- | --- | --- | --- | --- |
| NCc1cc([C@@H]2CC3(CC3)[C@@H]3CN2C(=O)N3OS(=O)(=O)O)no1 [Example 35, (1R,4S)-4-(5-(aminomethyl)-isoxazol-3-yl)-6-oxo-5,7-diazaspiro[bicyclo[3.2.1]octane-2,1′-cyclopropan]-7-yl sulfate] | C (C: 16-128 μg/mL) | A (A: <8 μg/mL) | A (A: <8 μg/mL) | A (A: <8 μg/mL) | A (A: <8 μg/mL) | C (C: 16-128 μg/mL) | A (A: <8 μg/mL) | A (A: <8 μg/mL) | C (C: 16-128 μg/mL) | A (A: <8 μg/mL) | A (A: <8 μg/mL) | A (A: <8 μg/mL) | A (A: <8 μg/mL) | B (B: 8-16 μg/mL) | A (A: <8 μg/mL) | A (A: <8 μg/mL) |
| N=C(N)N1CC(NCc2cc([C@@H]3CC4(CC4)[C@@H]4CN3C(=O)N4OS(=O)(=O)O)no2)C1 [Example 51, (1R,4S)-4-(5-(((1-amidinoazetidin-3-yl)amino)methyl)isoxazol-3-yl)-6-oxo-5,7-diazaspiro[bicyclo[3.2.1]octane-2,1′-cyclopropan]-7-yl sulfate] | C (C: 16-128 μg/mL) | B (B: 8-16 μg/mL) | A (A: <8 μg/mL) | C (C: 16-128 μg/mL) | A (A: <8 μg/mL) | B (B: 8-16 μg/mL) | B (B: 8-16 μg/mL) | A (A: <8 μg/mL) | C (C: 16-128 μg/mL) | A (A: <8 μg/mL) | A (A: <8 μg/mL) | A (A: <8 μg/mL) | A (A: <8 μg/mL) | A (A: <8 μg/mL) | A (A: <8 μg/mL) | A (A: <8 μg/mL) |
| O=C(NC1CCNCC1)[C@@H]1CC2(CC2)[C@@H]2CN1C(=O)N2OS(=O)(=O)O [Example 27, (1R,4S)-6-oxo-4-(piperidin-4-ylaminoformyl)-5,7-diazaspiro[bicyclo[3.2.1]octane-2,1′-cyclopropan]-7-yl sulfate] | C (C: 16-128 μg/mL) | A (A: <8 μg/mL) | A (A: <8 μg/mL) | B (B: 8-16 μg/mL) | A (A: <8 μg/mL) | A (A: <8 μg/mL) | B (B: 8-16 μg/mL) | A (A: <8 μg/mL) | C (C: 16-128 μg/mL) | A (A: <8 μg/mL) | A (A: <8 μg/mL) | A (A: <8 μg/mL) | A (A: <8 μg/mL) | A (A: <8 μg/mL) | A (A: <8 μg/mL) | A (A: <8 μg/mL) |
| N=C(N)NC[C@H](O)c1cc([C@@H]2CC3(CC3)[C@@H]3CN2C(=O)N3OS(=O)(=O)O)no1 [Example 39, (1R,4S)-4-(5-((S)-2-guanidyl-1-hydroxyethyl)isoxazol-3-yl)-6-oxo-5,7-diazaspiro [bicyclo[3.2.1]octane-2,1′-cyclopropan]-7-yl sulfate] | C (C: 16-128 μg/mL) | A (A: <8 μg/mL) | A (A: <8 μg/mL) | A (A: <8 μg/mL) | A (A: <8 μg/mL) | B (B: 8-16 μg/mL) | A (A: <8 μg/mL) | A (A: <8 μg/mL) | B (B: 8-16 μg/mL) | A (A: <8 μg/mL) | A (A: <8 μg/mL) | A (A: <8 μg/mL) | A (A: <8 μg/mL) | A (A: <8 μg/mL) | A (A: <8 μg/mL) | A (A: <8 μg/mL) |
| NCCNC[C@H](O)c1nnc([C@@H]2CC3(CC3)[C@@H]3CN2C(=O)N3OS(=O)(=O)O)o1 [Example 31, (1R,4S)-4-(5-((S)-2-((2-aminoethyl)amino)-1-hydroxyethyl)-1,3,4-oxadiazol-2-yl)-6-oxo-5,7-diazaspiro[bicyclo[3.2.1]octane-2,1′-cyclopropan]-7-yl sulfate] | C (C: 16-128 μg/mL) | A (A: <8 μg/mL) | A (A: <8 μg/mL) | B (B: 8-16 μg/mL) | A (A: <8 μg/mL) | C (C: 16-128 μg/mL) | A (A: <8 μg/mL) | A (A: <8 μg/mL) | B (B: 8-16 μg/mL) | A (A: <8 μg/mL) | A (A: <8 μg/mL) | A (A: <8 μg/mL) | A (A: <8 μg/mL) | B (B: 8-16 μg/mL) | A (A: <8 μg/mL) | A (A: <8 μg/mL) |
